Laboratory results taken from the NIST ThermoML archive (doi:10.1016/j.jct.2006.05.007).
± gives the expanded uncertainty stated by the source.

Conditions: Liquid

CCOC(C)(C)C [2-ethoxy-2-methylpropane]
Twin ebulliometer
Conditions | vapor or sublimation pressure [kPa]
298.25 K | 16.83 ± 0.042
303.13 K | 20.88 ± 0.042
307.44 K | 25.07 ± 0.043
312.55 K | 30.91 ± 0.044
317.29 K | 37.26 ± 0.045
322.74 K | 45.83 ± 0.046
328.3 K | 56.12 ± 0.048
333.56 K | 67.49 ± 0.05
339.17 K | 81.57 ± 0.053
343.23 K | 93.18 ± 0.057
343.89 K | 95.31 ± 0.057
344.57 K | 97.44 ± 0.057
345.25 K | 99.6 ± 0.057
345.92 K | 101.69 ± 0.057

CC(C)COC(C)(C)C [isobutyl tert-butyl ether]
Ebulliometric method (Recirculating still)
Conditions | vapor or sublimation pressure [kPa]
310.61 K | 6.234 ± 0.041
317.06 K | 8.426 ± 0.041
322.6 K | 10.8 ± 0.041
327.65 K | 13.43 ± 0.041
333.13 K | 16.83 ± 0.042
338.55 K | 20.88 ± 0.042
343.33 K | 25.07 ± 0.043
349 K | 30.91 ± 0.043
354.26 K | 37.26 ± 0.044
360.31 K | 45.83 ± 0.045
366.48 K | 56.12 ± 0.047
372.35 K | 67.49 ± 0.049
378.59 K | 81.57 ± 0.051
383.13 K | 93.18 ± 0.054
383.92 K | 95.31 ± 0.054
384.69 K | 97.44 ± 0.055
385.45 K | 99.6 ± 0.055

CC(C)OC(C)C [diisopropyl ether]
Twin ebulliometer
Conditions | vapor or sublimation pressure [kPa]
308.58 K | 30.91 ± 0.044
313.25 K | 37.26 ± 0.045
318.65 K | 45.83 ± 0.046
324.17 K | 56.12 ± 0.048
329.4 K | 67.49 ± 0.05
334.98 K | 81.57 ± 0.053
339.03 K | 93.18 ± 0.055
339.73 K | 95.31 ± 0.056
340.41 K | 97.44 ± 0.056
